The source of these data is publication PMC4398506, “Remodeling of host phosphatidylcholine by Chlamydia acyltransferase is regulated by acyl-CoA binding protein ACBD6 associated with lipid droplets” (MicrobiologyOpen, 2015).

Structures are written as SMILES.

For the assay, the target named is T1, CT775 (Chlamydia LPCAT) (Chlamydia trachomatis, UniProt O84780).
T1 construct: gene CT_775; full-length gene (253 residues predicted) in pET28a, His-tagged, expressed in E. coli BL21DE3; cleared lysate or membrane fraction, not purified
The assay can be described thus: radiometric TLC assay of […]PC formation from lysoPC. Format: biochemical. As to conditions: labelled compound; acyl donor with 20 umol/L egg lysoPC; pH 7.0, 37 C, Tween-20.

T1 sequence (O84780 entry or part of it): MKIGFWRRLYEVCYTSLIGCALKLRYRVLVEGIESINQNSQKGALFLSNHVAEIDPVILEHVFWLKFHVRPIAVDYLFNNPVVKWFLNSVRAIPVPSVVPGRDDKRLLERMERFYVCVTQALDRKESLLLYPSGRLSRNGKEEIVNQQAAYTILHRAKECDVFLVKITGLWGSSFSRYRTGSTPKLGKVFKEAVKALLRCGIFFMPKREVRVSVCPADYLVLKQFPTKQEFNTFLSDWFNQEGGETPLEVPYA

On to `CCCCCCCC/C=C\CCCCCCCC(=O)SCCNC(=O)CCNC(=O)[C@H](O)C(C)(C)COP(=O)(O)OP(=O)(O)OC[C@H]1O[C@@H](n2cnc3c(N)ncnc32)[C@H](O)[C@@H]1OP(=O)(O)O` [C18:1-CoA], for which the “radiometric TLC assay of [14C]PC formation from lysoPC” value is given as “The rate of PC formation by CT775 was dependent on the concentration of oleoyl-CoA”.
